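At the GI50, growth is halved. Definition used: TGI = concentration required for complete inhibition of growth.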
What was measured:
Assay in all cases: growth of human tumour cells (NCI), 384-well format
[1] = system: LOX IMVI melanoma
[2] = system: SF-539 CNS
[3] = system: A498 renal
[4] = system: DU-145 prostate
[5] = system: UACC-257 melanoma
[6] = system: SF-295 CNS
[7] = system: RXF 393 renal
[8] = system: BT-549 breast
[9] = system: RPMI-8226 leukemia
[10] = system: NCI-H226 lung
[11] = system: UO-31 renal
[12] = system: IGROV1 ovarian
[13] = system: UACC-62 melanoma
[14] = system: OVCAR-3 ovarian
[15] = system: SR leukemia
[16] = system: HT29 colon
[17] = system: SK-MEL-5 melanoma
[18] = system: HL-60(TB) leukemia
[19] = system: HCC-2998 colon
[20] = system: NCI/ADR-RES ovarian
[21] = system: SN12C renal
[22] = system: SK-MEL-2 melanoma
[23] = system: SF-268 CNS
[24] = system: TK-10 renal
[25] = system: SK-MEL-28 melanoma
[26] = system: HCT-15 colon
[27] = system: MDA-MB-435 melanoma
[28] = system: NCI-H460 NSCLC
[29] = system: SW-620 colon
[30] = system: HOP-62 NSCLC
[31] = system: MDA-MB-231 breast
[32] = system: PC-3 prostate
[33] = system: SK-OV-3 ovarian
[34] = system: OVCAR-4 ovarian
[35] = system: OVCAR-8 ovarian
[36] = system: NCI-H322M lung
[37] = system: COLO 205 colon
[38] = system: MALME-3M melanoma
[39] = system: CAKI-1 renal
[40] = system: ACHN renal
[41] = system: T-47D breast
[42] = system: SNB-19 CNS
[43] = system: NCI-H23 lung
[44] = system: KM12 colon
[45] = system: HOP-92 NSCLC
[46] = system: MCF7 breast
[47] = system: 786-0 renal
[48] = system: M14 melanoma
[49] = system: K-562 leukemia
[50] = system: HCT-116 colon
[51] = system: CCRF-CEM leukemia
[52] = system: U251 glioblastoma
[53] = system: MDA-MB-468 breast
[54] = system: MOLT-4 leukemia
[55] = system: NCI-H522 lung
[56] = system: A549 NSCLC
[57] = system: OVCAR-5 ovarian

## Cc1c(N(C(=O)c2cc(-c3cc(Cl)ccc3C(=O)N3Cc4ccccc4C[C@H]3CN3CCOCC3)n(C)c2C)c2ccc(O)cc2)cc(C#N)n1C
[1]
  GI50: 10.4 µM
  TGI: 33 µM
[2]
  GI50: 9.73 µM
  TGI: > 100 µM
[3]
  GI50: 4.79 µM
  TGI: 19 µM
[4]
  GI50: 16.3 µM
  TGI: > 100 µM
[5]
  GI50: 10.1 µM
  TGI: 28.5 µM
[6]
  GI50: 13.4 µM
  TGI: 62.6 µM
[7]
  GI50: 0.886 µM
  TGI: 3.92 µM
[8]
  GI50: 12.5 µM
  TGI: 30.9 µM
[9]
  GI50: 1.26 µM
  TGI: 2.52 µM
[10]
  GI50: 9.16 µM
  TGI: 22.2 µM
[11]
  GI50: 10.9 µM
  TGI: > 100 µM
[12]
  GI50: 13.5 µM
  TGI: > 100 µM
[13]
  GI50: 6.3 µM
  TGI: 27.3 µM
[14]
  GI50: 3.87 µM
  TGI: 18.9 µM
[15]
  GI50: 1.46 µM
  TGI: 2.87 µM
[16]
  GI50: 10.9 µM
  TGI: 43.6 µM
[17]
  GI50: 9.04 µM
  TGI: 28.4 µM
[18]
  GI50: 0.0546 µM
  TGI: 1.19 µM
[19]
  GI50: 3.35 µM
  TGI: 8.64 µM
[20]
  GI50: 50.5 µM
  TGI: > 100 µM
[21]
  GI50: 9.51 µM
  TGI: > 100 µM
[22]
  GI50: 5.97 µM
  TGI: 20 µM
[23]
  GI50: 22 µM
  TGI: > 100 µM
[24]
  GI50: 12.5 µM
  TGI: 58.6 µM
[25]
  GI50: 17.1 µM
  TGI: 67.1 µM
[26]
  GI50: 9.36 µM
  TGI: 24.1 µM
[27]
  GI50: 5.21 µM
  TGI: 19.3 µM
[28]
  GI50: 6.2 µM
  TGI: > 100 µM
[29]
  GI50: 11.3 µM
  TGI: 25.7 µM
[30]
  GI50: 5.87 µM
  TGI: 29.3 µM
[31]
  GI50: 3.74 µM
  TGI: 14.1 µM
[32]
  GI50: 7.32 µM
  TGI: 65.6 µM
[33]
  GI50: 11.5 µM
  TGI: 45.2 µM
[34]
  GI50: 5.99 µM
  TGI: 37.5 µM
[35]
  GI50: 8.66 µM
  TGI: > 100 µM
[36]
  GI50: 24.7 µM
  TGI: > 100 µM
[37]
  GI50: 25.5 µM
  TGI: > 100 µM
[38]
  GI50: 19.2 µM
  TGI: 47.2 µM
[39]
  GI50: 9.01 µM
  TGI: 66.1 µM
[40]
  GI50: 7.31 µM
  TGI: > 100 µM
[41]
  GI50: 6.85 µM
  TGI: > 100 µM
[42]
  GI50: 7.72 µM
  TGI: > 100 µM
[43]
  GI50: 9.38 µM
  TGI: > 100 µM
[44]
  GI50: 16.1 µM
  TGI: > 100 µM
[45]
  GI50: 2.58 µM
  TGI: 7.15 µM
[46]
  GI50: 11.4 µM
  TGI: > 100 µM
[47]
  GI50: 6.22 µM
  TGI: 30 µM
[48]
  GI50: 12 µM
  TGI: 34.1 µM
[49]
  GI50: 4.85 µM
  TGI: 38.2 µM
[50]
  GI50: 4.12 µM
  TGI: > 100 µM
[51]
  GI50: 1.68 µM
  TGI: 3.11 µM
[52]
  GI50: 7.69 µM
  TGI: > 100 µM
[53]
  GI50: 2.84 µM
  TGI: 7.25 µM
[54]
  GI50: 1.61 µM
  TGI: 2.97 µM
[55]
  GI50: 12.8 µM
  TGI: 36.8 µM
[56]
  GI50: 7.07 µM
  TGI: > 100 µM
[57]
  GI50: 28 µM
  TGI: > 100 µM

— PubChem BioAssay (NCI)
